From US12559529B2, “NPY2 receptor agonists” (Boehringer Ingelheim International GmbH, priority 2019, dated 2026)

Experiments:
[1] = target: T1, Human Neuropeptide Y2 Receptor (Homo sapiens, UniProt P49146); experiment: Radioligand binding competition assay (RLB); settings: Table 3; human 125I-PYY (1-36) 0.02 nM, Y2 receptor membranes; read-out: Ki
T1 construct: purchased CHEMICON HTS066M
T1 sequence (P49146 1-381): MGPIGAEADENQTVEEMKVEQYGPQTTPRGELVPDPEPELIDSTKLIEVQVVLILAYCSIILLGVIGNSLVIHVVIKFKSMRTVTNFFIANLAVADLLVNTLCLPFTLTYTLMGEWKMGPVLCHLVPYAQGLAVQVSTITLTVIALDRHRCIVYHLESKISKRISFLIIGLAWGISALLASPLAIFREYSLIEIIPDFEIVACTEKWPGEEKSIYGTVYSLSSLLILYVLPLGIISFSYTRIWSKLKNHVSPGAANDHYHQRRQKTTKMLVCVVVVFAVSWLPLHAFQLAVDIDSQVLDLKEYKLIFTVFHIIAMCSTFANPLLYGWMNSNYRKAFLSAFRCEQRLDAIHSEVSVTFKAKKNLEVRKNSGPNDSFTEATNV
In short: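 Filtration format; Y2R membrane prep 0.5 μg/well; buffer 50 mM HEPES/5 mM MgCl2/1 mM CaCl2/0.2% ovalbumin pH 7.4; 2 h RT, shaking. Harvest on PEI-soaked GF/C, ice-cold HEPES/500 mM NaCl washes, scintillation count. IC50 by nonlinear fit.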

human NPY1 receptor = target: T2, human NPY1 receptor (Homo sapiens, UniProt P25929); experiment: HTRF cAMP Gi assay, hY1R; type: cell-based; settings: Table 4; CHO-K1 cells
T2 construct: expressed in transfected cells; host or cells: CHO-K1
T2 sequence (P25929 1-384): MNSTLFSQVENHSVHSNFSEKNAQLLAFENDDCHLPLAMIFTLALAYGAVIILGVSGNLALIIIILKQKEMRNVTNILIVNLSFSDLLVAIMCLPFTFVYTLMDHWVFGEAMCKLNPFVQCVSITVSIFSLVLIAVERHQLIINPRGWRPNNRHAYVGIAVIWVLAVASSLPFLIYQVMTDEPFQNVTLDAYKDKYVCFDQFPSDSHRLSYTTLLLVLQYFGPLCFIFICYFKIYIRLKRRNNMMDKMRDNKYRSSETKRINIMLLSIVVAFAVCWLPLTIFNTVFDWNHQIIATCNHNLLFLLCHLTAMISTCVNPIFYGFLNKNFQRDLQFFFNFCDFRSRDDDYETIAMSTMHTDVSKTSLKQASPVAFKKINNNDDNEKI
Description: (§1) Briefly, the production of intracellular cAMP will generate a competition between unlabeled cAMP and exogenously added d2-cAMP for anti-cAMP antibodies conjugated to cryptate. CHO-K1 cells stably expressing the human NPY1, NPY2, NPY4 and NPY5 receptors were used with the cells brought to life from a frozen stock immediately before assay performance. 2000 cells per well were applied for all four NPY receptor subtype assays. A 384-well format was used applying a total volume of 20 μl using 5 μl cells, 2.5 μl peptide agonist, 2.5 μl forskolin and 5 μl of each of the fluorophores. […] Concentration-response evaluation of compounds was performed with 11 concentrations of agonist peptides (covering 3 decades). EC50 values were calculated by nonlinear regression using sigmoid concentration-response with variable slope.

human NPY4 receptor = target: T3, human NPY4 receptor (Homo sapiens, UniProt P50391); experiment: HTRF cAMP Gi assay, hY4R; type: cell-based; settings: Table 4; CHO-K1 cells
T3 construct: expressed in transfected cells; host or cells: CHO-K1
T3 sequence (P50391 whole entry): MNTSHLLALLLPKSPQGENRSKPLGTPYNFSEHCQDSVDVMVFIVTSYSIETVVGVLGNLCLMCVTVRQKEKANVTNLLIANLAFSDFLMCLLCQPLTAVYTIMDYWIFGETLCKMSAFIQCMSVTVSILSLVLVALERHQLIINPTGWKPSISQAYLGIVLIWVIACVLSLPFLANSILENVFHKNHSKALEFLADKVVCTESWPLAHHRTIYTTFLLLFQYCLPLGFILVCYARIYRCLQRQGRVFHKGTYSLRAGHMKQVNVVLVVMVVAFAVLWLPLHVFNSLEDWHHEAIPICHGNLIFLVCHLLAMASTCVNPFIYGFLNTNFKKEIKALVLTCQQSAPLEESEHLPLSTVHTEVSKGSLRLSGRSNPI
Excerpt: (§2) The Homogenous Time Resolved fluorescence (HTRF) technology optimized for Gi coupled receptors has thoroughly been described in Cisbio cAMP Gi kit manual. Briefly, the production of intracellular cAMP will generate a competition between unlabeled cAMP and exogenously added d2-cAMP for anti-cAMP antibodies conjugated to cryptate. CHO-K1 cells stably expressing the human NPY1, NPY2, NPY4 and NPY5 receptors were used with the cells brought to life from a frozen stock immediately before assay performance. 2000 cells per well were applied for all four NPY receptor subtype assays. A 384-well format was used applying a total volume of 20 μl using 5 μl cells, 2.5 μl peptide agonist, 2.5 μl forskolin and 5 μl of each of the fluorophores. […] Concentration-response evaluation of compounds was performed with 11 concentrations of agonist peptides (covering 3 decades). EC50 values were calculated by nonlinear regression using sigmoid concentration-response with variable slope.

normal NMRI mice = experiment: Effect on acute food intake in normal NMRI mice; type: in vivo; settings: male NMRI mice, 10 nmol/kg subcutaneously once
In short: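 A single 10 nmol/kg s.c. peptide dose was given 1 h before lights-off to male NMRI mice fasted from 6 h before the night phase (n=7-8). Intake was recorded continuously by microchip-identified HM-2 feeding channels. Values are normalized to vehicle controls (50 mM phosphate buffer pH7 with 5% Mannitol).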

human NPY2 receptor = target: T4, human NPY2 receptor (Homo sapiens, UniProt P49146); experiment: HTRF cAMP Gi assay, hY2R
T4 sequence (P49146 1-381): T1 sequence (P49146 1-381)
Description: as §1

human NPY5 receptor = target: T5, human NPY5 receptor (Homo sapiens, UniProt Q15761); experiment: HTRF cAMP Gi assay, hY5R
T5 sequence (Q15761 1-445): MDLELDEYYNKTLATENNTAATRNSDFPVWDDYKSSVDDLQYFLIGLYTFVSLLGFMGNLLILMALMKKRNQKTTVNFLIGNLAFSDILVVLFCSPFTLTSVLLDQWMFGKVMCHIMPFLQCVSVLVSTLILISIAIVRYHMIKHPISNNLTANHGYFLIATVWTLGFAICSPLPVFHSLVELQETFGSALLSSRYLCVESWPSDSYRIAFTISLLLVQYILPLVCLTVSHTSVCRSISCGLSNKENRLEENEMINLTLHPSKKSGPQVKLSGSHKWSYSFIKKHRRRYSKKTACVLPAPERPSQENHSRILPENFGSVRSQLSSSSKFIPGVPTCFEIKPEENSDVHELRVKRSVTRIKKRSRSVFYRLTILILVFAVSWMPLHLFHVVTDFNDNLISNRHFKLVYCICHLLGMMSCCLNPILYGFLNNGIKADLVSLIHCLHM
Excerpt: as §2

Row | Ki [1] [nM] | EC50 (human NPY1 receptor) [nM] | EC50 (human NPY4 receptor) [nM] | EC50 (human NPY2 receptor) [nM] | EC50 (human NPY5 receptor) [nM] | Structure (SMILES) | Acute Food Intake 24 h [% vehicle] (normal NMRI mice)
1 | 3.3 | > 5000 | > 5000 | 0.152 | > 5000 | CC(C)CC(=O)N[C@@H](C)C(=O)N1CCC[C@H]1C(=O)N[C@@H](CCC(=O)O)C(=O)N[C@@H](CCCCNC(=O)COCCOCCNC(=O)COCCOCCNC(=O)CC[C@H](NC(=O)CCCCCCCCCCCCCCCCC(=O)O)C(=O)O)C(=O)N1CCC[C@H]1C(=O)N[C@@H](CCC(=O)O)C(=O)N[C@@H](CCC(=O)O)C(=O)N[C@@H](CCC(=O)O)C(=O)N[C@@H](C)C(=O)N[C@@H](CO)C(=O)N1CCC[C@H]1C(=O)N[C@@H](CCC(=O)O)C(=O)N[C@@H](CCC(=O)O)C(=O)N[C@@H](CC(C)C)C(=O)N[C@@H](CCC(N)=O)C(=O)N[C@@H](CCCNC(=N)N)C(=O)N[C@@H](Cc1ccc(O)cc1)C(=O)N[C@@H](Cc1ccc(O)cc1)C(=O)N[C@H](C(=O)N[C@@H](CO)C(=O)N[C@@H](CC(C)C)C(=O)N[C@@H](CCCNC(=N)N)C(=O)N[C@@H](Cc1c[nH]cn1)C(=O)N[C@@H](Cc1ccc(O)cc1)C(=O)N[C@@H](Cc1ccc(O)cc1)C(=O)N[C@@H](CC(N)=O)C(=O)N[C@@H](Cc1c[nH]c2ccccc12)C(=O)N[C@@H](CC(C)C)C(=O)N[C@H](C(=O)N[C@@H](CCCNC(=N)N)C(=O)N[C@@H](CCC(N)=O)C(=O)N[C@@H](CCCNC(=N)N)C(=O)N[C@@H](Cc1ccc(O)cc1)C(N)=O)[C@@H](C)O)C(C)C [Compound 46, N{alpha-4}-(3-methylbutanoyl)-N{epsilon-7}-[2-(2-{2-[2-(2-{2-[(4S)-4-carboxy-4-(17-carboxyheptadecanamido)butanamido]ethoxy}ethoxy)acetamido]ethoxy}ethoxy)acetamido]-[4A,7K,9E,11E,18Q,22V,28Y,30W,31L]hPYY (4-36)] | 39
2 | 0.95 | > 5000 | > 5000 | 0.131 | > 5000 | CC(C)CC(=O)N[C@@H](C)C(=O)N1CCC[C@H]1C(=O)N[C@@H](CCC(=O)O)C(=O)N[C@@H](CCCCNC(=O)COCCOCCNC(=O)COCCOCCNC(=O)CC[C@H](NC(=O)CCCCCCCCCCCCCCCCC(=O)O)C(=O)O)C(=O)N1CCC[C@H]1C(=O)N[C@@H](CCC(=O)O)C(=O)N[C@@H](CCC(=O)O)C(=O)N[C@@H](CC(=O)O)C(=O)N[C@@H](C)C(=O)N[C@@H](CO)C(=O)N1CCC[C@H]1C(=O)N[C@@H](CCC(=O)O)C(=O)N[C@@H](CCC(=O)O)C(=O)N[C@@H](CC(C)C)C(=O)N[C@@H](CCC(N)=O)C(=O)N[C@@H](CCCNC(=N)N)C(=O)N[C@@H](Cc1ccc(O)cc1)C(=O)N[C@@H](Cc1ccc(O)cc1)C(=O)N[C@H](C(=O)N[C@@H](CO)C(=O)N[C@@H](CC(C)C)C(=O)N[C@@H](CCCNC(=N)N)C(=O)N[C@@H](Cc1c[nH]cn1)C(=O)N[C@@H](Cc1ccc(O)cc1)C(=O)N[C@@H](Cc1ccc(O)cc1)C(=O)N[C@@H](CC(N)=O)C(=O)N[C@@H](Cc1c[nH]c2ccccc12)C(=O)N[C@@H](CC(C)C)C(=O)N[C@H](C(=O)N[C@@H](CCCNC(=N)N)C(=O)N[C@@H](CCC(N)=O)C(=O)N[C@@H](CCCNC(=N)N)C(=O)N[C@@H](Cc1ccc(O)cc1)C(N)=O)[C@@H](C)O)C(C)C [Compound 54, N{alpha-4}-(3-methylbutanoyl)-N{epsilon-7}-[2-(2-{2-[2-(2-{2-[(4S)-4-carboxy-4-(17-carboxyheptadecanamido)butanamido]ethoxy}ethoxy)acetamido]ethoxy}ethoxy)acetamido]-[4A,7K,9E,18Q,22V,28Y,30W,31L]hPYY (4-36)] | 42
3 | 6.94 | > 5000 | > 5000 | 0.284 | > 5000 | CC(C)CC(=O)N[C@@H](C)C(=O)N1CCC[C@H]1C(=O)N[C@@H](CCC(=O)O)C(=O)N[C@@H](CCCCNC(=O)COCCOCCNC(=O)COCCOCCNC(=O)CC[C@H](NC(=O)CCCCCCCCCCCCCCCCC(=O)O)C(=O)O)C(=O)N1CCC[C@H]1C(=O)N[C@@H](CCC(=O)O)C(=O)N[C@@H](CCC(=O)O)C(=O)N[C@@H](CC(=O)O)C(=O)N[C@@H](C)C(=O)N[C@@H](CCC(=O)O)C(=O)N1CCC[C@H]1C(=O)N[C@@H](CCC(=O)O)C(=O)N[C@@H](CCC(=O)O)C(=O)N[C@@H](CC(C)C)C(=O)N[C@@H](CCC(N)=O)C(=O)N[C@@H](CCC(=O)O)C(=O)N[C@@H](Cc1ccc(O)cc1)C(=O)N[C@@H](Cc1ccc(O)cc1)C(=O)N[C@H](C(=O)N[C@@H](CO)C(=O)N[C@@H](CC(C)C)C(=O)N[C@@H](CCCNC(=N)N)C(=O)N[C@@H](Cc1c[nH]cn1)C(=O)N[C@@H](Cc1ccc(O)cc1)C(=O)N[C@@H](Cc1ccc(O)cc1)C(=O)N[C@@H](CC(N)=O)C(=O)N[C@@H](Cc1c[nH]c2ccccc12)C(=O)N[C@@H](CC(C)C)C(=O)N[C@H](C(=O)N[C@@H](CCCNC(=N)N)C(=O)N[C@@H](CCC(N)=O)C(=O)N[C@@H](CCCNC(=N)N)C(=O)N[C@@H](Cc1ccc(O)cc1)C(N)=O)[C@@H](C)O)C(C)C [Compound 105, N{alpha-4}-(3-methylbutanoyl)-N{epsilon-7}-[2-(2-{2-[2-(2-{2-[(4S)-4-carboxy-4-(17-carboxyheptadecanamido)butanamido]ethoxy}ethoxy)acetamido]ethoxy}ethoxy)acetamido]-[4A,7K,9E,13E,18Q,19E,22V,28Y,30W,31L]hPYY (4-36)] | 72
4 | 4.33 | > 5000 | > 5000 | 0.235 | > 5000 | CC(C)CC(=O)N[C@@H](C)C(=O)N1CCC[C@H]1C(=O)N[C@@H](CCC(=O)O)C(=O)N[C@@H](CCCCNC(=O)COCCOCCNC(=O)COCCOCCNC(=O)CC[C@H](NC(=O)CCCCCCCCCCCCCCCCC(=O)O)C(=O)O)C(=O)N1CCC[C@H]1C(=O)N[C@@H](CCC(=O)O)C(=O)N[C@@H](CCC(=O)O)C(=O)N[C@@H](CC(=O)O)C(=O)N[C@@H](C)C(=O)N[C@@H](CO)C(=O)N[C@@H](CCC(=O)O)C(=O)N[C@@H](CCC(=O)O)C(=O)N[C@@H](CCC(=O)O)C(=O)N[C@@H](CC(C)C)C(=O)N[C@@H](CCC(N)=O)C(=O)N[C@@H](CCC(=O)O)C(=O)N[C@@H](Cc1ccc(O)cc1)C(=O)N[C@@H](Cc1ccc(O)cc1)C(=O)N[C@H](C(=O)N[C@@H](CO)C(=O)N[C@@H](CC(C)C)C(=O)N[C@@H](CCCNC(=N)N)C(=O)N[C@@H](Cc1c[nH]cn1)C(=O)N[C@@H](Cc1ccc(O)cc1)C(=O)N[C@@H](Cc1ccc(O)cc1)C(=O)N[C@@H](CC(N)=O)C(=O)N[C@@H](Cc1c[nH]c2ccccc12)C(=O)N[C@@H](CC(C)C)C(=O)N[C@H](C(=O)N[C@@H](CCCNC(=N)N)C(=O)N[C@@H](CCC(N)=O)C(=O)N[C@@H](CCCNC(=N)N)C(=O)N[C@@H](Cc1ccc(O)cc1)C(N)=O)[C@@H](C)O)C(C)C [Compound 164, N{alpha-4}-(3-methylbutanoyl)-N{epsilon-7}-[2-(2-{2-[2-(2-{2-[(4S)-4-carboxy-4-(17-carboxyheptadecanamido)butanamido]ethoxy}ethoxy)acetamido]ethoxy}ethoxy)acetamido]-[4A,7K,9E,14E,18Q,19E,22V,28Y,30W,31L]hPYY (4-36)] | 64
